In patent publication EP1278852B1, “ZSIG33-LIKE PEPTIDES” (ZymoGenetics, Inc., priority 2000, dated 2001) one finds post-prandial glucose absorption data, which are given here for three substances.

No end group written: not given here.

The subject of the test is ob/ob mice. Put plainly: In vivo glucose absorption (oral glucose challenge). The settings on record: given orally at 100 µg, 30 minutes prior to an oral glucose challenge; serum glucose. Here is the method:
Eight female ob/ob mice, approximately 6 weeks old (Jackson Labs, Bar Harbor, ME) are adapted to a 4 hour daily feeding schedule for two weeks. After two weeks on the feeding schedule, the mice are give 100 µg of a peptide corresponding to the amino acid sequence as shown in SEQ ID NOs:4-6, 9-11, 14-17, 20-22, or 25-26 in 100 µl sterile 0.1% BSA by oral gavage, immediately after their eating period (post-prandially). Thirty minutes later, the mice are challenged orally with a 0.5 ml volume of 25% glucose. Retroorbital bleeds are done to determine serum glucose levels. Blood is drawn prior to peptide dosing, prior to oral glucose challenge, and at 1, 2, 4, and 20 hours following the glucose challenge.
In the case of “zsig33-delta: peptide corresponding to residues 1 to 10 of SEQ ID NO:14; listing has 10-residue SEQ ID NO:20 (FNAPFDVGIK)”, the post-prandial glucose absorption entry was “enhanced post-prandial glucose absorption”. As to “zsig33-gamma: peptide corresponding to residues 1 to 17 of SEQ ID NO:10; listing has 17-residue SEQ ID NO:14 (FLQDILWEEAKEAPADK)”, the post-prandial glucose absorption result was “enhanced post-prandial glucose absorption”. The result for “zsig33-epsilon: peptide corresponding to residues 1 to 13 of SEQ ID NO:17; listing has 13-residue amidated SEQ ID NO:26 (LSGVQYQQHSQAL-NH2)” reads “enhanced post-prandial glucose absorption”.
